{"source": "paper PMC9271885", "about": "(eBioMedicine, 2022)", "key": {"[1]": {"test": "Clinical course of the disease in infected hamsters (normalized weight, clinical signs)", "type": "in vivo, Syrian hamsters", "details": "Favipiravir IP 926mg/kg/day BID, inoculum 104 TCID50, sacrifice day 3, Figure 3, individual animals", "description": "Three-week-old female Syrian hamsters were provided by Janvier Labs (SPF status). Animals were maintained in ISOcage P - Bioexclusion System (Techniplast) with unlimited access to water/food and 14h/10h light/dark cycle. A wooden gnawing block and extra bedding material was provided as cage enrichment. Animals were weighed and monitored daily for the duration of the study to detect the appearance of any clinical signs of illness/suffering. General anesthesia was obtained with isoflurane (Isoflurin®, Axience). Euthanasia, which was also realized under general anesthesia, was performed by cervical dislocation.\nGroups of 6 hamsters were intranasally infected with 10^4 TCID50 of virus. a Experimental timeline. b, f, j Viral replication in lung based on infectious titers (measured using a TCID50 assay) expressed in TCID50/g of lung (n=6 animals/group). c, g, k Viral replication in lung based on viral RNA yields (measured using an RT-qPCR assay) expressed in viral genome copies/g of lung (n=6 animals/group). d, h, l Plasma viral loads (measured using an RT-qPCR assay) are expressed in viral genome copies/mL of plasma (the dotted line indicates the detection threshold of the assay) (n=6 animals/group). e, i, m Clinical course of the disease (n=6 animals/group). Normalized weight at day n was calculated as follows: % of initial weight of the animal at day n. Data represent mean ± SD (Details in Supplementary Data 2)."}, "[2]": {"test_system": "SARS-CoV-2", "test": "Hamster model of SARS-CoV-2 infection, oral NTZ treatment (lung infectious titers, lung viral RNA yields, plasma viral loads)", "type": "in vivo, Syrian hamsters", "design": "Lung Infectious titers / Plasmatic viral RNA yields / Lung Viral RNA yields: unit not given here"}, "[3]": {"details": "FVP 926mg/kg/day BID intraperitoneally, 3 dpi"}, "[4]": {"details": "Favipiravir IP 926mg/kg/day BID, inoculum 104 TCID50, sacrifice day 3, Figure 3, individual animals, 926 mg/kg/day"}}, "note": "“And” between values parts separate entries of the source, which are not always exact repeats. Equal entries are not always repeated."}
{"molecule": "NC(=O)c1nc(F)c[nH]c1=O", "note": "[FVP, favipiravir]", "values": [{"measurement": "Normalized weights Day 0", "setting": "[1]", "result": 100}, {"measurement": "Normalized weights Day 1", "setting": "[1]; 926 mg/kg/day", "result": "104.7 and 102.8 and 102.5 and 104.5 and 103.7 and 104.9"}, {"measurement": "Normalized weights Day 2", "setting": "[1]; 926 mg/kg/day", "result": "101.3 and 102.5 and 100.8 and 100.6 and 94.2 and 104.4"}, {"measurement": "Normalized weights Day 3", "setting": "[1]; 926 mg/kg/day", "result": "97.1 and 105.0 and 92.2 and 91.0 and 105.5 and 105.7"}, {"measurement": "infectious titers in clarified lung homogenates vs untreated animals", "setting": "[2]; [3]", "result": "significant reductions"}, {"measurement": "viral RNA yields in clarified lung homogenates vs untreated animals", "setting": "[2]; [3]", "result": "significant reductions"}, {"measurement": "Lung Infectious titers", "setting": "[2]; [4]", "result": "6.755 and 6.354 and 7.035 and 6.515 and 6.109 and 6.625"}, {"measurement": "Lung Viral RNA yields", "setting": "[2]; [4]", "result": "6.542 and 6.443 and 6.907 and 6.536 and 6.197 and 6.702"}, {"measurement": "Plasmatic viral RNA yields", "setting": "[2]; Favipiravir IP 926mg/kg/day BID, inoculum 104 TCID50, sacrifice day 3, Figure 3, individual animals, ¤ : Detection threshold at 1000 cp/ml, 926 mg/kg/day", "result": "3.034 and 2.169 and 2.511 and 5.618"}]}
